According to paper PMC6717386, “Aspulvinone O, a natural inhibitor of GOT1 suppresses pancreatic ductal adenocarcinoma cells growth by interfering glutamine metabolism” (Cell Communication and Signaling : CCS, 2019):

Legend:
murine GOT1 = molecular target: T1, murine GOT1 (Mus musculus, UniProt P05201); assay: microscale thermophoresis with labelled recombinant GOT1; supported by purified enzyme inhibition; format: binding
T1 construct: recombinant, C-terminal 6 His-tag

[1] = molecular target: GOT1 (aspartate transaminase 1, glutamic-oxaloacetic transaminase 1) (Homo sapiens, UniProt P17174); assay: microscale thermophoresis with labelled recombinant GOT1; supported by purified enzyme inhibition and kinetics, CETSA and DARTS; format: binding
Chain of GOT1 (aspartate transaminase 1, glutamic-oxaloacetic transaminase 1) (P17174 2-413): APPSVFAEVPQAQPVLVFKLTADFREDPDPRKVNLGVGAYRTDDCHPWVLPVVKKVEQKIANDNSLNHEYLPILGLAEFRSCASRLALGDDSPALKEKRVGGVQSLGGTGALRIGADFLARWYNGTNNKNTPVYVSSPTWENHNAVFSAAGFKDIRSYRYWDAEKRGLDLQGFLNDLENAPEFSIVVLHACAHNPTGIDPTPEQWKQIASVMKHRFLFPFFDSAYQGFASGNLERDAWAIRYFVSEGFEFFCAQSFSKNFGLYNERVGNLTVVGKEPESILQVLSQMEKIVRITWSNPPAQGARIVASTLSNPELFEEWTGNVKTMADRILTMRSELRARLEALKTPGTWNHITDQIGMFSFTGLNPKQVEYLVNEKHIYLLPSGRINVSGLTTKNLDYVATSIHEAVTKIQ

T1 sequence (P05201 2-413): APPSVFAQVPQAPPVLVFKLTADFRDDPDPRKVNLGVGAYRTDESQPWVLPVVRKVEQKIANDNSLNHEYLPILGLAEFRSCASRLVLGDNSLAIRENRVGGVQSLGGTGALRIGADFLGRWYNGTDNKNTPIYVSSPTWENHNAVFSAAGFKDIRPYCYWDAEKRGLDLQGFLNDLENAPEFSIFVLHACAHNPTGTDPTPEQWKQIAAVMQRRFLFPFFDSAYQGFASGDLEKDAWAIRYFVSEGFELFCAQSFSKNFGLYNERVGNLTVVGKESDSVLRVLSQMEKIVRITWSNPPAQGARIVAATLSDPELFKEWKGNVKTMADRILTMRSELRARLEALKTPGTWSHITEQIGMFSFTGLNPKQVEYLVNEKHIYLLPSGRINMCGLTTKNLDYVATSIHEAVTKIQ

CC(C)=CCc1cc(/C=C2\OC(=O)C(c3cc(CC=C(C)C)c(O)cc3O)=C2O)ccc1O [AO, 3-[2,4-Dihydroxy-5-(3-methyl-2-buten-1-yl)phenyl]-4-hydroxy-5-[[4-hydroxy-3-(3-methyl-2-buten-1-yl)phenyl]methylene]-2(5H)-furanone]
Kd (murine GOT1): 5.42 ± 1.36 µM
Kd [1]: 3.32 ± 1.18 µM
